Results reported in patent publication EP2505659A1, “Methods for the identification of dioxygenase interacting molecules and for the purification of dioxygenase proteins” (CELLZOME AG, priority 2011, dated 2012).
Where a name gives a salt, the structure may show the parent alone. Read-outs that look alike come from different tables or passages of the source.

Tests used:
Assay in all cases: Bead competition binding assay, immobilized compound A, K-562, HL-60 and Jurkat nuclear lysates
Conditions in all cases: 100 µM free compound A, read-out: Fold change versus DMSO control
[1] = biological target: T1, ALKBH3 (Homo sapiens, UniProt Q96Q83)
T1 construct: capturing and identification of dioxygenases from nuclear protein extracts; endogenous in cells
T1 sequence (Q96Q83 1-286): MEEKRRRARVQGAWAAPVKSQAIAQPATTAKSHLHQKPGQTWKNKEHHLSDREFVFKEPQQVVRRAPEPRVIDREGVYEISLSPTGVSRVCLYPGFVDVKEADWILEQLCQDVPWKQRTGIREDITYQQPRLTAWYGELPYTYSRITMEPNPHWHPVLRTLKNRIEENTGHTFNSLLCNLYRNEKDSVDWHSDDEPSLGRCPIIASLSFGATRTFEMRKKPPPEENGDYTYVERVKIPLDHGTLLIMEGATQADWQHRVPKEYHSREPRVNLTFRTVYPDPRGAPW
From the text: (§1) K562 cells were also purchased from DSMZ (Braunschweig, Germany).
(§2) Table 5: Peptide elution off the LC system

[2] = biological target: T2, ALKBH7 (Homo sapiens, UniProt Q9BT30)
T2 construct: capturing and identification of dioxygenases from nuclear lysates of three different cell lines; endogenous in cells; host or cells: K-562, HL-60 and Jurkat nuclear lysates
T2 sequence (Q9BT30 21-221): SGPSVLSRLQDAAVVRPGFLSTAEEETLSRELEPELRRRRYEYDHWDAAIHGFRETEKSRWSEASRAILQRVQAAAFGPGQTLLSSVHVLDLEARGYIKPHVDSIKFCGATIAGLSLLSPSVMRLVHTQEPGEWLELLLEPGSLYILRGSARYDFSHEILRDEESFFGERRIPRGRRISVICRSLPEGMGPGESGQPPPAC
From the text: as §1, §2
(§3) Seventeen different dioxygenases were identified.

[3] = biological target: T3, EGLN2 (Homo sapiens, UniProt Q96KS0)
T3 construct: capturing and identification of dioxygenases from nuclear lysates of three different cell lines; endogenous in cells; host or cells: K-562, HL-60 and Jurkat nuclear lysates
From the text: as §1, §2, §3

[4] = biological target: T4, LEPRE1 (Homo sapiens, UniProt Q32P28)
T4 construct: capturing and identification of dioxygenases from nuclear protein extracts; endogenous in cells
T4 sequence (Q32P28 23-736): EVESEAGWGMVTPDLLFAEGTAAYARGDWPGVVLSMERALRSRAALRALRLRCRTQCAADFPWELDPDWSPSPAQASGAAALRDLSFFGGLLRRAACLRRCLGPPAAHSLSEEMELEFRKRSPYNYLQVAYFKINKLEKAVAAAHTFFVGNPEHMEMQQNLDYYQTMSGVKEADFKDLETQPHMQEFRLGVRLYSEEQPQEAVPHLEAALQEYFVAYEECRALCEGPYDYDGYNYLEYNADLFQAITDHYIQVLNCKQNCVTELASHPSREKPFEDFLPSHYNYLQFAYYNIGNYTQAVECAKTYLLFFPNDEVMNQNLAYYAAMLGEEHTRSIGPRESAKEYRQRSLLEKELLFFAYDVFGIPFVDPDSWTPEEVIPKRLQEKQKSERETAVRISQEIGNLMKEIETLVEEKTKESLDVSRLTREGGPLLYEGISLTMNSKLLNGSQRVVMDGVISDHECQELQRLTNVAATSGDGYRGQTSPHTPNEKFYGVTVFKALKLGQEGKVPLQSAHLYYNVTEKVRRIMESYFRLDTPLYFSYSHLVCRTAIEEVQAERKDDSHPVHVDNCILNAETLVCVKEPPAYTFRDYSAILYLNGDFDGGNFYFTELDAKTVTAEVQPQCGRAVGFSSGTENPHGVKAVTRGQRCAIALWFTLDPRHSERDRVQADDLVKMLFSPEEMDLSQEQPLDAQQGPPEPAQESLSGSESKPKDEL
From the text: as §1, §2, §3

[5] = biological target: T5, OGFOD1 (Homo sapiens, UniProt Q8N543)
T5 construct: capturing and identification of dioxygenases from nuclear protein extracts; endogenous in cells
From the text: as §1, §2, §3

[6] = biological target: T6, P4HA2 (Homo sapiens, UniProt O15460)
T6 construct: capturing and identification of dioxygenases from nuclear lysates of three different cell lines; endogenous in cells; host or cells: K-562, HL-60 and Jurkat nuclear lysates
From the text: as §1, §2, §3

[7] = biological target: T7, PLOD2 (Homo sapiens, UniProt O00469)
T7 construct: capturing and identification of dioxygenases from nuclear lysates of three different cell lines; endogenous in cells; host or cells: K-562, HL-60 and Jurkat nuclear lysates
T7 sequence (O00469 26-737): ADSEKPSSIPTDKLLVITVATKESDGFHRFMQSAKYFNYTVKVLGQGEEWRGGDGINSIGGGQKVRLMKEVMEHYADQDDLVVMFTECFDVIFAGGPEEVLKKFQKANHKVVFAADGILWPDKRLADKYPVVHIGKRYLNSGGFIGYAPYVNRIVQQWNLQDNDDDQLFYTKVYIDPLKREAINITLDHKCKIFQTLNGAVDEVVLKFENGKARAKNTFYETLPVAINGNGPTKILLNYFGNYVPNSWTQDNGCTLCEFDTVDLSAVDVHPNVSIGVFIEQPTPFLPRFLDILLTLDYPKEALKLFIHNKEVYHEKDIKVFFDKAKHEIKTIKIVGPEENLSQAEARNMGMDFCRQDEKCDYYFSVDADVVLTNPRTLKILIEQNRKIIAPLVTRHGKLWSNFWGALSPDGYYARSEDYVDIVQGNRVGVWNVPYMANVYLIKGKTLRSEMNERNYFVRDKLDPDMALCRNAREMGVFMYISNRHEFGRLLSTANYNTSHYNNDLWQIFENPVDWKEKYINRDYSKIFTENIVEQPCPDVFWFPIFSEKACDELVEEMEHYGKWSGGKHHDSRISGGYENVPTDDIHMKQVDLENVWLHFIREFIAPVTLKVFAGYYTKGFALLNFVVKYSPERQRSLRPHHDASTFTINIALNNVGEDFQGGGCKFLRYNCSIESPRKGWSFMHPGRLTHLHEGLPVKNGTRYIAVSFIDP
From the text: as §1, §2, §3

[8] = biological target: T8, TMLHE (Homo sapiens, UniProt Q9NVH6)
T8 construct: capturing and identification of dioxygenases from nuclear lysates of three different cell lines; endogenous in cells; host or cells: K-562, HL-60 and Jurkat nuclear lysates
T8 sequence (Q9NVH6 16-421): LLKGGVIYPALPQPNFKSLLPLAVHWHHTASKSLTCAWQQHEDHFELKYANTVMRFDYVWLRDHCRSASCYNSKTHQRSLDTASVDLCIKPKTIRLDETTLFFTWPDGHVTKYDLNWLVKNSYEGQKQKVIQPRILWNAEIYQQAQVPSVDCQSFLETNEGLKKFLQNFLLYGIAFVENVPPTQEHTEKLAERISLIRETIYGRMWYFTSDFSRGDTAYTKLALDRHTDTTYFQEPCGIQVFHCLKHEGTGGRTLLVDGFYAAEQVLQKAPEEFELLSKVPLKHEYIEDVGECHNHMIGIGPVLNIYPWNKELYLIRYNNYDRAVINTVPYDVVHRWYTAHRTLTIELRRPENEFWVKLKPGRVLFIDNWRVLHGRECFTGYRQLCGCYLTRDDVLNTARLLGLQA
From the text: as §1, §2, §3

T5 sequence (Q8N543 whole entry): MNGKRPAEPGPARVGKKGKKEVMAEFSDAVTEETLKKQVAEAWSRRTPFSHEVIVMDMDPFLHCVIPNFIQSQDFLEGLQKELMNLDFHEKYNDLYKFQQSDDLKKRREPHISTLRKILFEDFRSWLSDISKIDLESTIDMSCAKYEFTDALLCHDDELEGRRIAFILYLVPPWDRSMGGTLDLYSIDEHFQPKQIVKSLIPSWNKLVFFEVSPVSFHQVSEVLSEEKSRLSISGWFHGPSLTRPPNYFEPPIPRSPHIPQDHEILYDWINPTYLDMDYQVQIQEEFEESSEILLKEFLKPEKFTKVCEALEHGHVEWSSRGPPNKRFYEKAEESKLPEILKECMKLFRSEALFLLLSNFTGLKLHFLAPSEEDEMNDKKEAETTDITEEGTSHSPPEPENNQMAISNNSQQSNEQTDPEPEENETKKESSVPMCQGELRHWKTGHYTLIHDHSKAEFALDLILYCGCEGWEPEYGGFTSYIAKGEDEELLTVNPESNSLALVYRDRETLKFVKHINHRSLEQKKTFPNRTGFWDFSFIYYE
T6 sequence (O15460 22-535): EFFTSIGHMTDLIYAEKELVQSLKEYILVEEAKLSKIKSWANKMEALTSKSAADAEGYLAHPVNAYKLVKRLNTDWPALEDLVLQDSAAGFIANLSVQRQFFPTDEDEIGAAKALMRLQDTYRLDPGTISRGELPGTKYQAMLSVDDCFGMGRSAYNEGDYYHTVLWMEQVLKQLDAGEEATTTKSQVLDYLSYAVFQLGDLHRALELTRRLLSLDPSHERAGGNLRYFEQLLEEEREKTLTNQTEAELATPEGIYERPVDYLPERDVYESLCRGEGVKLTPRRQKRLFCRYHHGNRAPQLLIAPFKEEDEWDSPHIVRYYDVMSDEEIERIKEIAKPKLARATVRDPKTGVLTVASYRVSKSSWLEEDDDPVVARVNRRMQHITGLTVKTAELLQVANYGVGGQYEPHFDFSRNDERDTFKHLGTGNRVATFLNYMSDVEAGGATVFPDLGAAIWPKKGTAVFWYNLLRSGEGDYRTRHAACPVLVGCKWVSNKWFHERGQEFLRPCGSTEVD
T6 sequence (P07237 18-508 partner): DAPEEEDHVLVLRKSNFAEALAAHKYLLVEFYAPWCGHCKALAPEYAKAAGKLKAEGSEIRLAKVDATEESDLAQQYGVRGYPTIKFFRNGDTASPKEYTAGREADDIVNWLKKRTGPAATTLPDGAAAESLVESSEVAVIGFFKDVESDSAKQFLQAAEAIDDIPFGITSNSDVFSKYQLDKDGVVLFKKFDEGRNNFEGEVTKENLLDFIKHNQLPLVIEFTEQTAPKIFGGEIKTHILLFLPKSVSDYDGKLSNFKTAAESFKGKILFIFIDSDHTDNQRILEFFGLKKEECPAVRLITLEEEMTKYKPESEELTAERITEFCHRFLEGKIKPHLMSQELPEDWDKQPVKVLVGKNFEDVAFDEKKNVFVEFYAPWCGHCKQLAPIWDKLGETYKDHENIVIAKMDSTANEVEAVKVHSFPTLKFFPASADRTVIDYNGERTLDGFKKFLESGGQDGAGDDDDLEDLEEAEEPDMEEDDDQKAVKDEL
T3 sequence (Q96KS0 whole entry): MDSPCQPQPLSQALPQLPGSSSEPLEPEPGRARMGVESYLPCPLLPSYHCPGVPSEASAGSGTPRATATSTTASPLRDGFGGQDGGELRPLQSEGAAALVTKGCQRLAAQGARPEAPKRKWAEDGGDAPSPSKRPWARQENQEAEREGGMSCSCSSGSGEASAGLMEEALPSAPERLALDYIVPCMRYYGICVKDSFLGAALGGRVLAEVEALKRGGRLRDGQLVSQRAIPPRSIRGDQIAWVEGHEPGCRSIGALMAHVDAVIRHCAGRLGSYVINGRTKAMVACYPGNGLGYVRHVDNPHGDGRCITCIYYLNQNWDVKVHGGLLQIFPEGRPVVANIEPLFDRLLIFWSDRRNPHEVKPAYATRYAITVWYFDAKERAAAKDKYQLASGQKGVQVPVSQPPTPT

O=C(O)CNC(=O)C1C(=O)OC2(CCNCC2)OC1=O [compound A, 2-(2,4-dioxo-1,5-dioxa-9-azaspiro[5.5]undecane-3-carboxamido)acetic acid hydrochloride]
remaining binding at 100 µM ([1]; HL-60 nuclear lysate): 36% | remaining binding at 100 µM ([1]; Jurkat nuclear lysate): 32% | remaining binding at 100 µM ([2]; HL-60 nuclear lysate): 82% | remaining binding at 100 µM ([2]; Jurkat nuclear lysate): 55% | remaining binding at 100 µM ([2]; K-562 nuclear lysate): 54% | remaining binding at 100 µM ([3]; HL-60 nuclear lysate): 124% | remaining binding at 100 µM ([3]; Jurkat nuclear lysate): 123% | remaining binding at 100 µM ([3]; K-562 nuclear lysate): 75% | remaining binding at 100 µM ([4]; HL-60 nuclear lysate): 126% | remaining binding at 100 µM ([4]; Jurkat nuclear lysate): 90% | remaining binding at 100 µM ([4]; K-562 nuclear lysate): 100% | remaining binding at 100 µM ([5]; HL-60 nuclear lysate): 50% | remaining binding at 100 µM ([5]; Jurkat nuclear lysate): 30% | remaining binding at 100 µM ([5]; K-562 nuclear lysate): 19% | remaining binding at 100 µM ([6]; HL-60 nuclear lysate): 279% | remaining binding at 100 µM ([6]; Jurkat nuclear lysate): 136% | remaining binding at 100 µM ([6]; K-562 nuclear lysate): 28% | remaining binding at 100 µM ([7]; HL-60 nuclear lysate): 86% | remaining binding at 100 µM ([7]; Jurkat nuclear lysate): 109% | remaining binding at 100 µM ([7]; K-562 nuclear lysate): 54% | remaining binding at 100 µM ([8]; HL-60 nuclear lysate): 104% | remaining binding at 100 µM ([8]; Jurkat nuclear lysate): 49% | remaining binding at 100 µM ([8]; K-562 nuclear lysate): 50%
